Here are results for 24 compounds from patent publication US7868135B2, “Compositions of lipopeptide antibiotic derivatives and methods of use thereof” (priority 2003, dated 2011).

Starred links: 1 amine or outer side, 2 acyl side, 3 side chain; linkers in the order of their positions; H or OH if unused. Positions of bridges follow the written chain, without caps; N, C: chain ends. Non-standard residues stand in square brackets, D forms with d. Residues, ends and D or L forms follow the SMILES beside them. ξ: configuration not given here. *: point of attachment. X35 = CC(C(N[*:1])C(=O)[*:2])N(Cc1ccc(O)cc1)Cc1ccc(O)cc1; X17 = CSC[C@H](N)C(=O)NC(C)C(N[*:1])C(=O)[*:2]; X29 = COCCOCCOCC(=O)NC(C)C(N[*:1])C(=O)[*:2]; ξAbu(βξ-NH2) = CC(N[*:3])C(N[*:1])C(=O)[*:2]; X23 = CC(NCc1ccc(O)cc1)C(N[*:1])C(=O)[*:2]; Lys(Me3) = C[N+](C)(C)CCCC[C@H](N)C(=O)O; Pentadecanoyl = CCCCCCCCCCCCCCC(=O)*; ξAsp(βξ-Me) = CC(C(=O)O)C(N)C(=O)O; NHtetradecyl = CCCCCCCCCCCCCCN*; ξAbu(3ξ-NH2) = CC(N)C(N)C(=O)O; Lauroyl = CCCCCCCCCCCC(=O)*; Decanoyl = CCCCCCCCCC(=O)*; 3Abz = Nc1cccc(C(=O)O)c1; Pip = O=C(O)[CH]1CCCCN1; ξD = NC(CC(=O)O)C(=O)O; ξPip = O=C(O)C1CCCCN1; CO = O=C([*:1])[*:2]; ξV = CC(C)C(N)C(=O)O; ξP = O=C(O)C1CCCN1

The test system of one test is Staphylococcus aureus (MSSA). As to conditions: 24 h. Put shortly: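 Broth microdilution MIC per NCCLS M7-A6 with doubling serial dilutions, in cation-adjusted Mueller-Hinton broth supplemented with 0.625 mM calcium.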
Broadly, the MIC is the smallest concentration in the dilution series that meets the test's criterion for growth inhibition. `CCCCCCCCCCCCCCC(=O)NC(CC(=O)O)C(=O)NC1C(=O)N2CCCCC2C(=O)NC(C(C)C(=O)O)C(=O)NC(CC(=O)O)C(=O)NCC(=O)NC(CC(=O)O)C(=O)NCC(=O)NC(C(C)N(Cc2ccc(O)cc2)Cc2ccc(O)cc2)C(=O)NC(C(C)C)C(=O)N2CCCC2C(=O)NC1C` (stereo not drawn) [Compound 267, C15-Amphomycin-9-N,N-di-(p-Hydroxybenzyl)] (Pentadecanoyl-D[ξAbu(βξ-NH2)][Pip][ξAsp(βξ-Me)]DGDG[X35]VP; lactam 2-C; configuration not given here): the MIC worked out at 8 µg/mL.
Still for that read-out and setting: for `CCCCCCCCCCCC(=O)Nc1cccc(C(=O)NC(CC(=O)O)C(=O)NC2C(=O)N3CCCCC3C(=O)NC(C(C)C(=O)O)C(=O)NC(CC(=O)O)C(=O)NCC(=O)NC(CC(=O)O)C(=O)NCC(=O)NC(C(C)N)C(=O)NC(C(C)C)C(=O)N3CCCC3C(=O)NC2C)c1` (stereo not drawn) [Compound 296, C12-(M-Aminobenzoyl)-Amphomycin] ({Lauroyl-3Abz}-D[ξAbu(βξ-NH2)][Pip][ξAsp(βξ-Me)]DGDG[ξAbu(3ξ-NH2)]VP; lactam 2-C; configuration not given here) the value was 0.25 µg/mL; for `CCCCCCCCCCCCCCC(=O)NC(CC(=O)O)C(=O)NC1C(=O)N2CCCCC2C(=O)NC(C(C)C(=O)O)C(=O)NC(CC(=O)O)C(=O)NCC(=O)NC(CC(=O)O)C(=O)NCC(=O)NC(C(C)NC(=O)COCCOCCOC)C(=O)NC(C(C)C)C(=O)N2CCCC2C(=O)NC1C` (stereo not drawn) [Compound 343, C15-Amphomycin-9-([2-(2-Methoxy-Ethoxy)-Ethoxy]-Acetyl)] (Pentadecanoyl-D[ξAbu(βξ-NH2)][Pip][ξAsp(βξ-Me)]DGDG[X29]VP; lactam 2-C; configuration not given here), 64 µg/mL.
Consider `CCCCCCCCCCCCCCC(=O)NC(CC(=O)O)C(=O)NC1C(=O)N2CCCCC2C(=O)NC(C(C)C(=O)O)C(=O)NC(CC(=O)O)C(=O)NCC(=O)NC(CC(=O)O)C(=O)NCC(=O)NC(C(C)NC(=O)CNC(=O)CN)C(=O)NC(C(C)C)C(=O)N2CCCC2C(=O)NC1C` (stereo not drawn) [Compound 42, C15-Amphomycin-9-Gly-Gly], for which the MIC was 1 µg/mL.
Same read-out and setting: for `CCCCCCCCCCCCCCC(=O)NC(CC(=O)O)C(=O)NC1C(=O)N2CCCCC2C(=O)NC(C(C)C(=O)O)C(=O)NC(CC(=O)O)C(=O)NCC(=O)NC(CC(=O)O)C(=O)NCC(=O)NC(C(C)NC(=O)[C@H](N)Cc2ccc(O)cc2)C(=O)NC(C(C)C)C(=O)N2CCCC2C(=O)NC1C` (stereo partly drawn) [Compound 263, C15-Amphomycin-(D-Tyr)] the value was 32 µg/mL; for `CCCCCCCCCCCCCCC(=O)NC(CC(=O)O)C(=O)NC1C(=O)N2CCCCC2C(=O)NC(C(C)C(=O)O)C(=O)NC(CC(=O)O)C(=O)NCC(=O)NC(CC(=O)O)C(=O)NCC(=O)NC(C(C)NC(=O)CCCCCCCCCCCCCC)C(=O)NC(C(C)C)C(=O)N2CCCC2C(=O)NC1C` (stereo not drawn) [Compound 342, C15-Amphomycin-9-C15], above 64 µg/mL; for `CCCCCCCCCCCCCCC(=O)NC(CC(=O)O)C(=O)NC1C(=O)N2CCCCC2C(=O)NC(C(C)C(=O)O)C(=O)NC(CC(=O)O)C(=O)NCC(=O)NC(CC(=O)O)C(=O)NCC(=O)NC(C(C)NC(=O)CNC(=O)CCCCCN)C(=O)NC(C(C)C)C(=O)N2CCCC2C(=O)NC1C` (stereo not drawn) [Compound 197, C15-Amphomycin-9-Gly-Ahx], 0.25 to 0.5 µg/mL.
Regarding `CCCCCCCCNC(=O)NC(CC(=O)O)C(=O)NC1C(=O)N2CCCCC2C(=O)NC(C(C)C(=O)O)C(=O)NC(CC(=O)O)C(=O)NCC(=O)NC(CC(=O)O)C(=O)NCC(=O)NC(C(C)N)C(=O)NC(C(C)C)C(=O)N2CCCC2C(=O)NC1C` (stereo not drawn) [Compound 252, CH3—(CH2)7—NH—C(═O)-Amphomycin], the minimal inhibitory concentration (MIC) is 32 µg/mL.
As for `CCCCCCCCCCCCCCC(=O)NC(CC(=O)O)C(=O)NC1C(=O)N2CCCCC2C(=O)NC(C(C)C(=O)O)C(=O)NC(CC(=O)O)C(=O)NCC(=O)NC(CC(=O)O)C(=O)NCC(=O)NC(C(C)NC(=O)[C@@H](N)CCCC[N+](C)(C)C)C(=O)NC(C(C)C)C(=O)N2CCCC2C(=O)NC1C` (stereo partly drawn) [Compound 170, C15-Amphomycin-9-(ME)3Lys] (Pentadecanoyl-[ξD][ξAbu(βξ-NH2)][ξPip][ξAsp(βξ-Me)][ξD]G[ξD]G[ξAbu(βξ-NH2)](Lys(Me3))[ξV][ξP]; lactam 2-C), the minimum inhibitory concentration (MIC) is 2 µg/mL.
For the compound `CCCCCCCCCCCCCCC(=O)NC(CC(=O)O)C(=O)NC1C(=O)N2CCCCC2C(=O)NC(C(C)C(=O)O)C(=O)NC(CC(=O)O)C(=O)NCC(=O)NC(CC(=O)O)C(=O)NCC(=O)NC(C(C)NC(=O)[C@@H](N)CC2CCCCC2)C(=O)NC(C(C)C)C(=O)N2CCCC2C(=O)NC1C` (stereo partly drawn) [Compound 31, C15-Amphomycin-9-(β-Cha)], the MIC was 16 µg/mL.
`CCCCCCCCCC(=O)Nc1cccc(C(=O)NC(CC(=O)O)C(=O)NC2C(=O)N3CCCCC3C(=O)NC(C(C)C(=O)O)C(=O)NC(CC(=O)O)C(=O)NCC(=O)NC(CC(=O)O)C(=O)NCC(=O)NC(C(C)N)C(=O)NC(C(C)C)C(=O)N3CCCC3C(=O)NC2C)c1` (stereo not drawn) [Compound 293, C10-(M-Aminobenzoyl)-Amphomycin] ({Decanoyl-3Abz}-D[ξAbu(βξ-NH2)][Pip][ξAsp(βξ-Me)]DGDG[ξAbu(3ξ-NH2)]VP; lactam 2-C; configuration not given here): the minimum inhibitory concentration (MIC) worked out at 2 µg/mL.
Same read-out and setting: for `CCCCCCCCCCCCCCC(=O)NC(CC(=O)O)C(=O)NC1C(=O)N2CCCCC2C(=O)NC(C(C)C(=O)O)C(=O)NC(CC(=O)O)C(=O)NCC(=O)NC(CC(=O)O)C(=O)NCC(=O)NC(C(C)NC(=O)[C@@H](N)CSC)C(=O)NC(C(C)C)C(=O)N2CCCC2C(=O)NC1C` (stereo partly drawn) [Compound 162, C15-Amphomycin-9-MeCys] (Pentadecanoyl-[ξD][ξAbu(βξ-NH2)][ξPip][ξAsp(βξ-Me)][ξD]G[ξD]G[X17][ξV][ξP]; lactam 2-C) the value was 8 µg/mL; for `CCCCCCCCCCCCCCNC(=O)NC(CC(=O)O)C(=O)NC1C(=O)N2CCCCC2C(=O)NC(C(C)C(=O)O)C(=O)NC(CC(=O)O)C(=O)NCC(=O)NC(CC(=O)O)C(=O)NCC(=O)NC(C(C)NC(=O)CNC(=O)[C@@H](N)CCCCN)C(=O)NC(C(C)C)C(=O)N2CCCC2C(=O)NC1C` (stereo partly drawn) [Compound 277, CH3—(CH2)13—NH—C(═O)-Amphomycin-9-Gly-Lys], 0.5 to 1 µg/mL.
For the compound `CCCCCCCCCCCCCCC(=O)NC(CC(=O)O)C(=O)NC1C(=O)N2CCCCC2C(=O)NC(C(C)C(=O)O)C(=O)NC(CC(=O)O)C(=O)NCC(=O)NC(CC(=O)O)C(=O)NCC(=O)NC(C(C)NC(=O)[C@H](CCCCN)NC(=O)CN)C(=O)NC(C(C)C)C(=O)N2CCCC2C(=O)NC1C` (stereo partly drawn) [Compound 193, C15-Amphomycin-9-Lys-Gly], the MIC lay in the range of 4 to 8 µg/mL.
The same measure, in the same setting: to `CCCCCCCCCCCCCCC(=O)NC(CC(=O)O)C(=O)NC1C(=O)N2CCCCC2C(=O)NC(C(C)C(=O)O)C(=O)NC(CC(=O)O)C(=O)NCC(=O)NC(CC(=O)O)C(=O)NCC(=O)NC(C(C)NC(=O)[C@H](CCCCN)NC(=O)[C@H](CCCCN)NC(=O)[C@@H](N)CCCCN)C(=O)NC(C(C)C)C(=O)N2CCCC2C(=O)NC1C` (stereo partly drawn) [Compound 195, C15-Amphomycin-9-Lys-Lys-Lys] belongs 4 µg/mL; to `CCCCCCCCNC(=O)NCCC(=O)NC(CC(=O)O)C(=O)NC1C(=O)N2CCCCC2C(=O)NC(C(C)C(=O)O)C(=O)NC(CC(=O)O)C(=O)NCC(=O)NC(CC(=O)O)C(=O)NCC(=O)NC(C(C)N)C(=O)NC(C(C)C)C(=O)N2CCCC2C(=O)NC1C` (stereo not drawn) [Compound 321, CH3—(CH2)7—NH—C(═O)-(β-Ala)-Amphomycin], above 64 µg/mL; to `CCCCCCCCCCCCCCNC(=O)NCC(=O)NC(CC(=O)O)C(=O)NC1C(=O)N2CCCCC2C(=O)NC(C(C)C(=O)O)C(=O)NC(CC(=O)O)C(=O)NCC(=O)NC(CC(=O)O)C(=O)NCC(=O)NC(C(C)N)C(=O)NC(C(C)C)C(=O)N2CCCC2C(=O)NC1C` (stereo not drawn) [Compound 307, CH3—(CH2)13—NH—C(═O)-Gly-Amphomycin] ({NHtetradecyl-CO}-GD[ξAbu(βξ-NH2)][Pip][ξAsp(βξ-Me)]DGDG[ξAbu(3ξ-NH2)]VP; lactam 3-C; configuration not given here), 0.5 µg/mL.
`CCCCCCCCCCCCCCC(=O)NC(CC(=O)O)C(=O)NC1C(=O)N2CCCCC2C(=O)NC(C(C)C(=O)O)C(=O)NC(CC(=O)O)C(=O)NCC(=O)NC(CC(=O)O)C(=O)NCC(=O)NC(C(C)NC(=O)CNC(=O)[C@@H](N)CCCN)C(=O)NC(C(C)C)C(=O)N2CCCC2C(=O)NC1C` (stereo partly drawn) [Compound 153, C15-Amphomycin-9-Gly-Orn]: the MIC turned out to be 2 µg/mL.
In the case of `CCCCCCCCCCCCCCC(=O)NC(CC(=O)O)C(=O)NC1C(=O)N2CCCCC2C(=O)NC(C(C)C(=O)O)C(=O)NC(CC(=O)O)C(=O)NCC(=O)NC(CC(=O)O)C(=O)NCC(=O)NC(C(C)NCc2ccc(O)cc2)C(=O)NC(C(C)C)C(=O)N2CCCC2C(=O)NC1C` (stereo not drawn) [Compound 266, C15-Amphomycin-9-(4-Hydroxybenzyl)] (Pentadecanoyl-D[ξAbu(βξ-NH2)][Pip][ξAsp(βξ-Me)]DGDG[X23]VP; lactam 2-C; configuration not given here), the MIC was in the range of 8 to 16 µg/mL.

Still in this test, the particulars now being: S. aureus (MSSA), CAMHB supplemented with 0.625 mM calcium, 24 hours at about 37° C.; a range = compound tested multiple times.
For “CH3—(CH2)15—NH—C(═O)-(M-Phenylacetyl)-Amphomycin [Compound 302]”, the MIC was found to be 4 µg/mL.
Same read-out and setting: to “CH3—(CH2)15—NH—C(═O)-(p-Phenylacetyl)-Amphomycin [Compound 287]” belongs 4 µg/mL; to `CCCCCCCCCCCCC(=O)NC(CC(=O)O)C(=O)NC1C(=O)N2CCCCC2C(=O)NC(C(C)C(=O)O)C(=O)NC(CC(=O)O)C(=O)NCC(=O)NC(CC(=O)O)C(=O)NCC(=O)NC(C(C)NC(=O)[C@@H](N)CCCN)C(=O)NC(C(C)C)C(=O)N2CCCC2C(=O)NC1C` (stereo partly drawn) [Compound 134, C13-Amphomycin-9-Orn], 134/32 μg/mL; to “(12-Methyl-Tetradec-2-Enoyl)-Aspartocin-9-Sar [Compound 371]”, 0.5 µg/mL.
Still for that read-out and setting: to `CCCCCCCCCCCCC(=O)NC(CC(=O)O)C(=O)NC1C(=O)N2CCCCC2C(=O)NC(C(C)C(=O)O)C(=O)NC(CC(=O)O)C(=O)NCC(=O)NC(CC(=O)O)C(=O)NCC(=O)NC(C(C)NC(=O)[C@@H](N)CN)C(=O)NC(C(C)C)C(=O)N2CCCC2C(=O)NC1C` (stereo partly drawn) [Compound 136, C13-Amphomycin-9-Dap] belongs 136/4 μg/mL.
